“And” between values parts separate entries of the source, which are not always exact repeats. Identical values can stand only once. Like-named read-outs stand apart in the source and are kept apart here.
Tests used:
domestic flies [1] = assay: insecticidal activity, full-scale (large-scale) test in premises; assay type: in vivo; details: 2% solution, 2-3 dishes per 20 m²; 72 hours
Description: The full-scale tests for activity of the insecticidal composition of the invention to domestic flies in habitable and industrial premises were carried out as follows. The Petri dishes containing a 2% solution of the insecticidal composition of the invention were located according 2-3-dishes per 20 m². The composition activity was evaluated by a direct estimation of killed insects in 72 hours or by using an adhesive tape to count the number of flies on its surface prior to and after conducting the test.

[2] = mice and rats; cited from earlier work
Candida Tropi-calis [3] = assay: fungicidal activity, laboratory test on Sabouraud medium; assay type: cell-based, Candida tropicalis; details: 0.01% solution in water
Description: (§1) A fungicidal composition based on this compound was prepared, which was a 0.01% solution of the compound in water. […] For testing it the Petri dishes containing Sabourand growth medium were inoculated by using suspension of microorganisms containing 5x10⁷ cells of fungi in 1 ml.
(§2) The restricted surface areas (7 mm in diameter) were coated with the composition by means of a small metal spatula 4x4 mm in size. In a day of incubating it at 37°C in the thermostat the composition inhibited the growth of yeast-like fungi. An antifungal activity of the composition was specified according to the method of 10-fold serial dilution using Sabourand's liquid medium in 2 ml of which 2x10⁵ cells were introduced.

Candida Tropi-calis [4] = assay: fungicidal activity, large-scale test on surfaces of articles; assay type: cell-based, Candida tropicalis; details: 0.01% solution in water
Description: (§3) The large-scale tests were carried out by using Candida albicans and Candida tropicalis strains, with their 2-day agar culture being diluted with an isotonic sodium chloride solution up to the concentration of 5x10⁷ cells in 1 ml. The culture suspension was laid on the surface (7 mm in diameter) of articles made of ceramics, metal, wood and rubber as well as a cotton, flannel and woollen cloth which were presterilized.
(§4) In a day after incubation from the treated areas washings were taken with a cotton-gauze tampon which was moistened with Sabouraud's liquid medium, then they were immersed into the tubes containing a similar medium, and placed into thermostat at 37°C for 2 days. Thereafter, the inoculum was transfered onto a solified Sabouraud agar, and the values of growth were recorded according to a conventional procedure. The test data of the composition according to the invention over a known composition (zineb) and the control are given in Table 3.

domestic flies [5] = assay: insecticidal activity, laboratory test in gauze boxes; assay type: in vivo; details: for Death of flies, % Tests in laboratory: 2% solution in 5% aqueous glucose, observed in 48-72 hours
Description: The compound obtained was used for preparing an insecticidal composition which was a 2% solution of the compound in a 5% aqueous solution of glucose. The test for activity of the insecticidal composition of the invention was conducted on domestic flies. Into gause 10x10 cm boxes /6 boxes/ 6-7-day flies were placed in the number of 50 individuals per box, which were of both sexes. The Petri dishes containing the insecticidal composition of the invention were put into 5 boxes. The observations for fly death were carried out in 48-72 hours. The Petri dish containing a 5% aqueous glucose solution were placed into a control box.

Candida albicans [6] = assay: fungicidal activity, large-scale test on surfaces of articles; assay type: cell-based; details: 0.01% solution in water
Description: as §3, §4

Candida albicans [7] = assay: fungicidal activity, laboratory test on Sabouraud medium; assay type: cell-based; details: 0.01% solution in water
Description: as §1, §2

Influenza A viruses = assay: virulicidal activity, virus titer in allantoic fluid by hemagglutination-inhibition
Hepatitis B virus = assay: virulicidal activity, HBsAg titer in blood serum
Source text: table ratio instead of the test composition.

pig ascarid eggs = assay: microbe, parasite or virus in culture
Meningopneumonia virus = test system: Meningopneumonia virus; design: species or system meningopneumonia pathogene/MP strain/
Staphylococcus aureus = assay: microbe, parasite or virus in culture; assay type: cell-based; details: Staphylococcus aureus, read-out: Death of micro-organisms, % Staphylo-cocus aureus
Escherichia coli = assay: microbe, parasite or virus in culture; assay type: cell-based; details: Escherichia coli, read-out: Death of micro-organisms, % Escherichia coli
[8] = 24 h, read-out: Death of ascaridal eggs, % after 24 hours
[9] = 48 h, read-out: Death of ascaridal eggs, % after 48 hours

| Structure (SMILES) | Death of flies, % Tests in large-scale (domestic flies [1]) [%] | Growth inhibition of fungal colonies, % Candida Tropi-calis Laboratory tests (Candida Tropi-calis [3]) [%] | Growth inhibition of fungal colonies, % Candida Tropi-calis Large-scale tests (Candida Tropi-calis [4]) [%] | Death of flies, % Tests in laboratory (domestic flies [5]) [%] | Growth inhibition of fungal colonies, % Candida albicans Large-scale tests (Candida albicans [6]) [%] | Growth inhibition of fungal colonies, % Candida albicans Laboratory tests (Candida albicans [7]) [%] | Virulicidal activity (%) under exposure 30 min (Influenza A viruses; concentration 1.0 % by mass) [%] | Virulicidal activity (%) under exposure 30 min (Influenza A viruses; concentration 2.0 % by mass) [%] | other results |
| --- | --- | --- | --- | --- | --- | --- | --- | --- | --- |
| COP(=O)(OC)C(O)C(Cl)(Cl)Cl (stereo not shown) [0,0-dimethyl/1-hydroxy-2,2,2,-trichloroethyl/-phosphonate, reference compound] | 88.0 | – | – | – | – | – | – | – | LD₅₀ [2]: 225 to 1200 mg/kg |
| COP(=NC(CO)C(O)c1ccc([N+](=O)[O-])cc1)(OC)OC (stereo not shown) [Example 1, trimethoxyphosphazo-1-para-nitrophenyl-1,3-propandiol] | 87.0 | 100.0 | 100.0 | 89.1 | 100.0 | 100.0 | – | – | – |
| CCOP(=NC(CO)C(O)c1ccc([N+](=O)[O-])cc1)(OCC)OCC (stereo not shown) [Example 2, triethoxyphosphazo-1-para-nitrophenyl-1,3-propandiol] | 83.0 | 100.0 | 100.0 | 84.7 | 100.0 | 100.0 | – | – | – |
| CCCOP(=NC(CCl)C(O)c1ccc([N+](=O)[O-])cc1)(OCCC)OCCC (stereo not shown) [Example 5, tri-n-propoxyphosphazo-1-para-nitrophenyl-1-chloro-3-propanol] | 93.0 | – | – | 94.5 | – | – | 12.5 | 50.0 | Virulicidal activity (%) under exposure 60 min (Influenza A viruses; concentration 1.0 % by mass): 50.0%; Virulicidal activity (%) under exposure 60 min (Influenza A viruses; concentration 2.0 % by mass): 75.0%; Virulicidal activity (%) under exposure 30 min (Hepatitis B virus; concentration 1.0 % by mass): 12.5%; Virulicidal activity (%) under exposure 60 min (Hepatitis B virus; concentration 1.0 % by mass): 50.0%; Virulicidal activity (%) under exposure 30 min (Hepatitis B virus; concentration 2.0 % by mass): 25,0%; Virulicidal activity (%) under exposure 60 min (Hepatitis B virus; concentration 2.0 % by mass): 75,0%; killing at 2 % (pig ascarid eggs; [8]): 100%; killing at 2 % (pig ascarid eggs; [9]): 100%; Virulicidal activity (%) under exposure 60 min (Meningopneumonia virus): 50.0% and 75.0% |
| COP(=NC(CCl)C(Cl)c1ccc([N+](=O)[O-])cc1)(OC)OC (stereo not shown) [Example 9, trimethoxyphosphazo-1-para-nitrophenyl-1,3-dichloropropane] | 83.0 | 100.0 | 100.0 | 85.2 | 100.0 | 100.0 | – | – | killing at 0.5 % (Staphylococcus aureus): 100%; killing at 0.5 % (Escherichia coli): 100% |
| CCOP(=NC(CCl)C(Cl)c1ccc([N+](=O)[O-])cc1)(OCC)OCC (stereo not shown) [Example 10, triethoxyphosphazo-1-para-nitrophenyl-1,3-dichloropropane] | 88.0 | 100.0 | 100.0 | 89.9 | 100.0 | 100.0 | – | – | killing at 0.5 % (Staphylococcus aureus): 99.8%; killing at 0.5 % (Escherichia coli): 100% |
| COP(=NC(CCl)C(O)c1ccc([N+](=O)[O-])cc1)(OC)OC (stereo not shown) [Example 15] | – | 100.0 | 100.0 | – | 100.0 | 100.0 | – | – | – |
| CCOP(=NC(CCl)C(O)c1ccc([N+](=O)[O-])cc1)(OCC)OCC (stereo not shown) [Example 16, triethoxy-phosphazo-1-para-nitrophenyl-1-chloro-3-propanol] | – | 100.0 | 100.0 | – | 100.0 | 100.0 | 50.0 | 98.4 | Virulicidal activity (%) under exposure 60 min (Influenza A viruses; concentration 1.0 % by mass): 75.0%; Virulicidal activity (%) under exposure 60 min (Influenza A viruses; concentration 2.0 % by mass): 100.0%; Virulicidal activity (%) under exposure 30 min (Hepatitis B virus; concentration 1.0 % by mass): 50.0%; Virulicidal activity (%) under exposure 60 min (Hepatitis B virus; concentration 1.0 % by mass): 75.0%; Virulicidal activity (%) under exposure 30 min (Hepatitis B virus; concentration 2.0 % by mass): 100,0%; Virulicidal activity (%) under exposure 60 min (Hepatitis B virus; concentration 2.0 % by mass): 100,0%; Virulicidal activity (%) under exposure 30 min (Meningopneumonia virus): 25.0% and 50.0%; Virulicidal activity (%) under exposure 60 min (Meningopneumonia virus): 50.0% and 99.0% |
| O=C(N[C@H](COP(=N[C@@H](CO)[C@@H](O)c1ccc([N+](=O)[O-])cc1)(OC[C@@H](NC(=O)C(Cl)Cl)[C@H](O)c1ccc([N+](=O)[O-])cc1)OC[C@@H](NC(=O)C(Cl)Cl)[C@H](O)c1ccc([N+](=O)[O-])cc1)[C@H](O)c1ccc([N+](=O)[O-])cc1)C(Cl)Cl [Example 27] | – | – | – | – | – | – | 100.0 | 100.0 | Death of flies, % after 48 hours (domestic flies [5]; concentration 2.0 % by mass, after 48 hours): 34.0%; Death of flies, % after 72 hours (domestic flies [5]; concentration 2.0 % by mass, after 72 hours): 62.0%; killing at 2 % (pig ascarid eggs; [8]): 100%; killing at 2 % (pig ascarid eggs; [9]): 100% |
